# From publication PMC7473840, “Identification of a molecular locus for normalizing dysregulated GABA release from interneurons in the Fragile X brain” (Molecular Psychiatry, 2018)
# Experiments:
# [1] = tested on: PNs, WT cerebellar slices; test: Spontaneous firing of PNs, cell-attached, WT; assay type: cell-based, mouse; conditions: 10 μM
# [2] = tested on: PNs, Fmr1-KO cerebellar slices; test: Spontaneous firing of PNs, cell-attached, Fmr1-KO; assay type: cell-based, mouse; conditions: 10 μM, Fmr1-KO
# [3] = tested on: Kv1.2–FMRP interaction, cerebellar homogenates; test: Co-IP of Kv1.2 with FMRP (anti-FMRP antibody), peptide blocking; assay type: binding; conditions: WT mouse cerebellar homogenates; 250 μM peptide added prior to anti-FMRP antibody; immunoblot; at least in triplicate
# Description: Whole cerebellums from WT and Fmr1 KO mice were homogenized in ice-cold Pull-Down buffer (1% Lubrol, 50 mM Tris–HCl, pH 7.4, 10 nM Na-orthovanadate, 30 mM Na-pyrophosphate, 50 mM NaF, 20 μm ZnCl2, and 0.25 mM PMSF, with the addition of protease inhibitor cocktail) using a Potter-Elvehjem grinding chamber (VWR). Samples were then centrifuged at 5000g for 20 min and 500 μL of supernatants were transferred into 1.5 ml Eppendorf tubes. 1:100 dilutions of anti-FMRP (Abcam 17722), anti-Kv1.2 (K14/16; Neuromab), anti-Kv1.2 ext-c (extracellular; Alomone labs), anti-Kv1.2 N-term (NBP1-42802; Novus), or anti-GAPDH (GAPDH-71.1; 1:80,000; Sigma-Aldrich) antibodies were added to the homogenate and incubated at 4 °C under continuous agitation for 2 h. A total 30 μL of a 1:1 mixture of pre-washed protein A and protein G magnabeads (Genscript) was then added and the samples were incubated under the same conditions for another 2 h. Beads were washed 4 times with PBS-Tween (0.2% Tween w/v) and then centrifuged at 3000g for 1 min. A sample was kept to verify total protein input. Protein was disassociated from the beads with the addition of 30 μL of 2× loading buffer (4% SDS, 20% glycerol w/v, 0.1 M dithiothreitol, 100 mM Tris–HCl, pH 6.8) then submitting the samples to 3 min at 95 °C. […] Bands were quantified as previously described using the AlphaEase SA software. […]
# [4] = tested on: BC–PN synapse, WT; test: sIPSCs from PNs, paired BC–PN recording, WT synapses; assay type: cell-based, mouse; conditions: peptide 2.5 mM infused into WT BCs, before and 20 min after; n = 5-6
# [5] = molecular target: T1, recombinant full-length FMRP (isoform 1) (Homo sapiens, UniProt Q06787); test: In vitro intrinsic protein fluorescence binding assay; conditions: 500–1000 μM peptide and 1 μM FMRP, 100 mM NaCl, 50 mM Na2PO4 pH 7.4, 2 mM DTT, 20 °C, excitation 287 nm
# T1 construct: containing cDNA for full-length human FMRP; His-SUMO (N, cleaved yes); made in house; host or cells: Escherichia coli BL21 (DE3) Codon Plus
# Description: Small Ubiquitin-like Modifier (SUMO) fusion construct containing cDNA for full-length human FMRP was generated by gene synthesis (GenScript USA Inc.) and subcloned into a pET SUMO vector (Invitrogen). […] The pET SUMO–FMRP construct was transformed into Escherichia coli BL21 (DE3) Codon Plus cells and grown at 37 °C in Lennox broth medium. Protein expression was induced with 0.5 mM isopropyl-β-D-thiogalactopyranoside when optical density reached ~0.6, followed by 18 h of additional growth at 16 °C. Cells were harvested by centrifugation and pellets stored at −20 °C. In order to purify SUMO–FMRP, thawed pellets were resuspended in lysis buffer [50 mM Tris, pH 8.0, 500 mM NaCl, 20 mM imidazole, 10% glycerol, 250 mM arginine, 5 mM benzamidine, and 2 mM dithiothreitol (DTT)], supplemented with DNAse 1 and cOmplete™ Protease Inhibitor Cocktail (Sigma-Aldrich). After cell lysis and centrifugation, the filtered supernatant was loaded onto a 20 ml NiNTA column equilibrated in the same lysis buffer. The column was extensively washed with 20 column volumes (CV) of the same buffer supplemented with 100 mM imidazole. Elution of SUMO-fusion FMRP was performed using 100–500 mM imidazole gradient, and protein-containing fractions were combined and a 6× His tagged Ulp protease was added. Cleavage of the His-SUMO tag was performed overnight in a cold room (7 °C) while dialyzing in 4 L of 50 mM Tris, pH 8.0, 500 mM NaCl, 50 mM imidazole, 10% glycerol, 250 mM arginine, 5 mM benzamidine, and 2 mM DTT. Complete cleavage of the SUMO tag by Ulp was confirmed by SDS-PAGE and the protein of interest was separated from the Ulp protease and SUMO tag by passing the cleavage reaction over a second NiNTA column. Flow-through and wash fractions containing protein of interest were combined and then loaded onto a Superdex 200 gel filtration column pre-equilibrated with the same lysis buffer.
# The eluted purified proteins were analyzed by both SDS-PAGE and mass spectrometry, and the combined fractions were dialyzed three times in 5 L of Fluorescence Binding Buffer (100 mM NaCl, 50 mM Na2PO4 pH 7.4, 2 mM DTT). After filtering through a 0.22 μm GV Durapore Centrifugal Filter Unit (Millipore), FMRP concentration was determined by absorbance at 280 nm using a molar extinction coefficient of 48,360 M^−1 cm^−1, and the protein was used for binding studies with Kv1.2 C-terminal peptides.
# All measurements were carried out in the Fluorescence Binding Buffer at 20 °C using a PTI Quanta Master 80 Spectrofluorometer (HORIBA Scientific) by monitoring intrinsic protein fluorescence with an excitation wavelength of 287 nm. Prior to performing a binding titration for any of the peptides, a full emission spectrum (300–450 nm) of the peptide:FMRP complex was compared to that of apo-FMRP. Differences in the spectrum of the complex (500–1000 μM peptide and 1 μM FMRP) and apo-FMRP at the same concentration (i.e., fluorescence quenching, enhancement or shifts of the emission maximum) indicated binding. For each of these peptides, binding measurements were performed by adding aliquots of saturated 1 µM FMRP:peptide complex (titration solution) to 400 μL of 1 μM apo-FMRP solution as described by Wells and Di Cera. Briefly, at each titration step, a volume vD was removed from the cuvette containing the apo-FMRP and replaced by an equal volume of the titration solution (1 μM FMRP: 200–500 μM peptide complex). As a result, the concentration of FMRP (1 μM) and total volume of solution in the cuvette, V = 400 μL, remained constant while the concentration of the peptide at the ith titration step, [peptide]i, was increased, and given by
# [peptide]i = [peptide]0^i.D^i+[peptide]∞^i.(1 − D^i),
# where, [peptide]0 was the initial peptide concentration in the cuvette, [peptide]∞ was the peptide concentration in the titration solution, and D was the dilution factor, D = (V − vD)/V. […]
Compound,"spontaneous firing of PNs, WT [1]","spontaneous firing of PNs, KO [2]",inhibition of Kv1.2–FMRP binding (co-IP) [3],amplitude and frequency of sIPSCs [4],change of fluorescence emission spectrum of FMRP (binding) [5],change of fluorescence emission spectrum of FMRP (binding) ([5]; listed as doubly-phosphorylated scrambled peptide)
NS(=O)(=O)c1cccc2c1c([N+](=O)[O-])cc1nc(O)c(O)nc12 [NBQX],little effect on the spontaneous firing,little effect on the spontaneous firing,,,,
IKPSTLSDSRAKpSSDPpSKPSIK [scrambled],,,"Neither the non-phosphorylated peptide with the identical sequence (Kv436-457, ^436PKIPSSPDLKKSRSASTISKSD^457) nor the doubly-phosphorylated scrambled peptide (IKPSTLSDSRAKpSSDPpSKPSIK) inhibited the Kv1.2–FMRP binding activity","but not the non-phosphorylated or scrambled phosphorylated peptide, significantly elevated the amplitude and frequency of sIPSCs",no change in the fluorescence emission spectrum of FMRP,no binding
